Reference: patent US11629171B2, “Beta-hairpin peptidomimetics” (POLYPHOR AG, priority 2017, dated 2023)
In brackets after ≈: the same amount, converted by molar mass. Where a SMILES comes first, the peptide text is derived from it. Bridges are numbered along the chain shown (N, C = ends). Roman numbers before positions name the chains, in order. [ ]: non-standard residue; d: D form. The star is where a group is joined. Tle = CC(C)(C)[C@H](N)C(=O)O; Hiv = CC(C)[C@H](O)C(=O)O; dDab = NCC[C@@H](N)C(=O)O; hSer = N[C@@H](CCO)C(=O)O; NHCH(CH2OH)2 = OCC(CO)N*; Orn = NCCC[C@H](N)C(=O)O; Dab = NCC[C@H](N)C(=O)O; Dap = NC[C@H](N)C(=O)O

Tests used:
Format in all cases: cell-based
[1] = test system: human red blood cells (hRBC); assay: Hemolysis; settings: red cells of human, 1 h, 200
Outline: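 Percent hemolysis relative to 2% Triton X-100 (100%) and PBS/10% water (0%), from blank-corrected OD540 of diluted supernatants. Peptides tested at 200 μg/mL against 20% (v/v) washed human erythrocytes, 1 h, 37° C, shaking at 300 rpm.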

[2] = test system: Escherichia coli ATCC 25922; settings: ATCC 25922
Outline: (§1)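 Visible-growth endpoint after 18-20 h at 35° C defines the MIC (μg/mL). Setup: CLSI broth microdilution, MH-II cation-adjusted broth with P-80 at 0.002% final, inoculum of approximately 10^6 CFU/mL, two-fold serial peptide dilutions.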

[3] = test system: Klebsiella pneumoniae SSI #3010; settings: SSI #3010
Outline: as §1

[4] = test system: Escherichia coli 926415; settings: 926415
Outline: as §1

[5] = test system: Acinetobacter baumannii DSM 30008; settings: DSM 30008
Outline: as §1

[6] = test system: Enterobacter cloacae 848840; settings: 848840
Outline: as §1

[7] = test system: Klebsiella pneumoniae 968733; settings: 968733
Outline: as §1

[8] = test system: Pseudomonas aeruginosa ATCC 27853; settings: ATCC 27853
Outline: as §1

[9] = test system: Acinetobacter baumannii 872842; settings: 872842
Outline: as §1

Structure (SMILES) | Hemolysis at 200 μg/mL [1] [%] | MIC [2] [µg/mL] | MIC [3] [µg/mL] | MIC [4] [µg/mL] | MIC [5] [µg/mL] | MIC [6] [µg/mL] | MIC [7] [µg/mL] | MIC [8] [µg/mL] | MIC [9] [µg/mL]
CC(C)C[C@@H]1NC(=O)[C@@H](CC(C)C)NC(=O)[C@H](CCN)NC(=O)[C@@H](NC(=O)[C@H](CN)NC(=O)[C@@H](NC(=O)[C@H](CCN)NC(=O)CC[C@H]2NC(=O)[C@H](CCCN)NC(=O)[C@H](CCN)NC(=O)[C@H](Cc3ccc(O)cc3)NC(=O)[C@@H](NC(=O)[C@@H](O)C(C)C)CSSC[C@@H](C(=O)NC(CO)CO)NC(=O)[C@H](C(C)(C)C)NC(=O)[C@H](CO)NC(=O)[C@H](Cc3c[nH]c4ccccc34)NC(=O)[C@H]([C@@H](C)O)NC2=O)[C@@H](C)O)CCNC(=O)[C@H]([C@@H](C)O)NC(=O)[C@H](CCN)NC(=O)[C@H](CCN)NC1=O [Ex. 163] (I: H-[Hiv]CY[Dab][Orn][dE]TWS[Tle]C-{NHCH(CH2OH)2} / II: [Dab]T[Dap][Dab][Dab][dL]L[Dab][Dab]T; disulfide I:2-I:11; amide I:6-II:N; lactam II:4-II:C) | 1 | 0.125 (≈ 0.0524 µM) | 0.25 (≈ 0.105 µM) | 0.5 (≈ 0.209 µM) | 0.125 (≈ 0.0524 µM) | 4 (≈ 1.68 µM) | 0.5 (≈ 0.209 µM) | 0.25 (≈ 0.105 µM) | 0.25 (≈ 0.105 µM)
CC(C)C[C@@H]1NC(=O)[C@H](CCN)NC(=O)[C@H](CCN)NC(=O)[C@H](CC(C)C)NC(=O)[C@@H](CC(C)C)NC(=O)[C@H](CCN)NC(=O)[C@@H](NC(=O)[C@@H](CCN)NC(=O)CC[C@H]2NC(=O)[C@H](CCCN)NC(=O)[C@H](CCN)NC(=O)[C@H](Cc3ccc(O)cc3)NC(=O)[C@@H](NC(=O)[C@@H](O)C(C)C)CSSC[C@@H](C(=O)N[C@H](C(N)=O)[C@@H](C)O)NC(=O)[C@H](C(C)(C)C)NC(=O)[C@H](CO)NC(=O)[C@H](Cc3c[nH]c4ccccc34)NC(=O)[C@H]([C@@H](C)O)NC2=O)CCNC1=O [Ex. 165] (I: H-[Hiv]CY[Dab][Orn][dE]TWS[Tle]CT-NH2 / II: [dDab][Dab][Dab][dL]L[Dab][Dab]L; disulfide I:2-I:11; amide I:6-II:N; lactam II:2-II:C) | <1 | 0.25 (≈ 0.112 µM) | 0.25 (≈ 0.112 µM) | 0.125 (≈ 0.0558 µM) | 1 (≈ 0.447 µM) | 4 (≈ 1.79 µM) | 0.5 (≈ 0.223 µM) | 0.5 (≈ 0.223 µM) | 1 (≈ 0.447 µM)
CC(C)C[C@@H]1NC(=O)[C@@H](CC(C)C)NC(=O)[C@H](CCN)NC(=O)[C@@H](NC(=O)[C@H](CN)NC(=O)[C@@H](NC(=O)[C@H](CCN)NC(=O)CC[C@@H]2NC(=O)[C@@H](CCN)NC(=O)CNC(=O)[C@H](CCN)NC(=O)[C@H](Cc3ccc(O)cc3)NC(=O)[C@@H](NC(=O)[C@@H](O)C(C)C)CSSC[C@@H](C(=O)N[C@H](C(N)=O)[C@@H](C)O)NC(=O)[C@H](C(C)(C)C)NC(=O)[C@H](CO)NC(=O)[C@H](Cc3c[nH]c4ccccc34)NC2=O)[C@@H](C)O)CCNC(=O)[C@H]([C@@H](C)O)NC(=O)[C@H](CCN)NC(=O)[C@H](CCN)NC1=O [Ex. 168] (I: H-[Hiv]CY[Dab]G[dDab]EWS[Tle]CT-NH2 / II: [Dab]T[Dap][Dab][Dab][dL]L[Dab][Dab]T; disulfide I:2-I:11; amide I:7-II:N; lactam II:4-II:C) | <1 | 0.0625 (≈ 0.0265 µM) | 0.125 (≈ 0.0531 µM) | 0.125 (≈ 0.0531 µM) | 0.125 (≈ 0.0531 µM) | 0.25 (≈ 0.106 µM) | 0.5 (≈ 0.212 µM) | 0.25 (≈ 0.106 µM) | 0.125 (≈ 0.0531 µM)
CC(C)C[C@@H]1NC(=O)[C@@H](CC(C)C)NC(=O)[C@H](CCN)NC(=O)[C@@H](NC(=O)[C@H](CN)NC(=O)[C@@H](NC(=O)[C@H](CCN)NC(=O)CC[C@H]2NC(=O)[C@@H](CCN)NC(=O)CNC(=O)[C@H](CCN)NC(=O)[C@H](Cc3ccc(O)cc3)NC(=O)[C@@H](NC(=O)[C@@H](O)C(C)C)CSSC[C@@H](C(=O)N[C@H](C(N)=O)[C@@H](C)O)NC(=O)[C@H](C(C)(C)C)NC(=O)[C@H](CO)NC(=O)[C@H](Cc3c[nH]c4ccccc34)NC2=O)[C@@H](C)O)CCNC(=O)[C@H]([C@@H](C)O)NC(=O)[C@H](CCN)NC(=O)[C@H](CCN)NC1=O [Ex. 171] (I: H-[Hiv]CY[Dab]G[dDab][dE]WS[Tle]CT-NH2 / II: [Dab]T[Dap][Dab][Dab][dL]L[Dab][Dab]T; disulfide I:2-I:11; amide I:7-II:N; lactam II:4-II:C) | <1 | 0.125 (≈ 0.0531 µM) | 0.125 (≈ 0.0531 µM) | 0.125 (≈ 0.0531 µM) | 0.0625 (≈ 0.0265 µM) | 0.5 (≈ 0.212 µM) | 0.5 (≈ 0.212 µM) | 0.25 (≈ 0.106 µM) | 0.0625 (≈ 0.0265 µM)
CC(C)C[C@@H]1NC(=O)[C@@H](CC(C)C)NC(=O)[C@H](CCN)NC(=O)[C@@H](NC(=O)[C@H](CN)NC(=O)[C@@H](NC(=O)[C@H](CCN)NC(=O)CC[C@@H]2NC(=O)[C@@H](CCN)NC(=O)[C@H](CCCN)NC(=O)[C@H](CCN)NC(=O)[C@H](Cc3ccc(O)cc3)NC(=O)[C@@H](NC(=O)[C@@H](O)C(C)C)CSSC[C@@H](C(=O)NC(CO)CO)NC(=O)[C@H](C(C)(C)C)NC(=O)[C@H](CO)NC(=O)[C@H](Cc3c[nH]c4ccccc34)NC2=O)[C@@H](C)O)CCNC(=O)[C@H]([C@@H](C)O)NC(=O)[C@H](CCN)NC(=O)[C@H](CCN)NC1=O [Ex. 172] (I: H-[Hiv]CY[Dab][Orn][dDab]EWS[Tle]C-{NHCH(CH2OH)2} / II: [Dab]T[Dap][Dab][Dab][dL]L[Dab][Dab]T; disulfide I:2-I:11; amide I:7-II:N; lactam II:4-II:C) | <1 | 0.125 (≈ 0.0524 µM) | 0.125 (≈ 0.0524 µM) | 0.25 (≈ 0.105 µM) | 0.125 (≈ 0.0524 µM) | 0.25 (≈ 0.105 µM) | 0.5 (≈ 0.21 µM) | 0.25 (≈ 0.105 µM) | 0.125 (≈ 0.0524 µM)
CC(C)C[C@@H]1NC(=O)[C@@H](CC(C)C)NC(=O)[C@H](CCN)NC(=O)[C@@H](NC(=O)[C@H](CN)NC(=O)[C@@H](NC(=O)[C@H](CCN)NC(=O)CC[C@@H]2NC(=O)CNC(=O)[C@H](CCCN)NC(=O)[C@H](CCN)NC(=O)[C@H](Cc3ccc(O)cc3)NC(=O)[C@@H](NC(=O)[C@@H](O)C(C)C)CSSC[C@@H](C(=O)NC(CO)CO)NC(=O)[C@H](C(C)(C)C)NC(=O)[C@H](CO)NC(=O)[C@H](Cc3c[nH]c4ccccc34)NC2=O)[C@@H](C)O)CCNC(=O)[C@H]([C@@H](C)O)NC(=O)[C@H](CCN)NC(=O)[C@H](CCN)NC1=O [Ex. 173] (I: H-[Hiv]CY[Dab][Orn]GEWS[Tle]C-{NHCH(CH2OH)2} / II: [Dab]T[Dap][Dab][Dab][dL]L[Dab][Dab]T; disulfide I:2-I:11; amide I:7-II:N; lactam II:4-II:C) | <1 | 0.125 (≈ 0.0534 µM) | 0.125 (≈ 0.0534 µM) | 0.25 (≈ 0.107 µM) | 0.0625 (≈ 0.0267 µM) | 4 (≈ 1.71 µM) | 2 (≈ 0.854 µM) | 0.5 (≈ 0.213 µM) | 0.125 (≈ 0.0534 µM)
CC(C)C[C@@H]1NC(=O)[C@@H](CC(C)C)NC(=O)[C@H](CCN)NC(=O)[C@@H](NC(=O)[C@H](CN)NC(=O)[C@@H](NC(=O)[C@H](CCN)NC(=O)CC[C@@H]2NC(=O)[C@@H](CCN)NC(=O)CNC(=O)[C@H](CCN)NC(=O)[C@H](Cc3ccc(O)cc3)NC(=O)[C@@H](NC(=O)[C@@H](O)C(C)C)CSSC[C@@H](C(=O)NC(CO)CO)NC(=O)[C@H](C(C)(C)C)NC(=O)[C@H](CO)NC(=O)[C@H](Cc3c[nH]c4ccccc34)NC2=O)[C@@H](C)O)CCNC(=O)[C@H]([C@@H](C)O)NC(=O)[C@H](CCN)NC(=O)[C@H](CCN)NC1=O [Ex. 174] (I: H-[Hiv]CY[Dab]G[dDab]EWS[Tle]C-{NHCH(CH2OH)2} / II: [Dab]T[Dap][Dab][Dab][dL]L[Dab][Dab]T; disulfide I:2-I:11; amide I:7-II:N; lactam II:4-II:C) | <1 | 0.0625 (≈ 0.0268 µM) | 0.0625 (≈ 0.0268 µM) | 0.125 (≈ 0.0537 µM) | 0.0625 (≈ 0.0268 µM) | 0.25 (≈ 0.107 µM) | 0.25 (≈ 0.107 µM) | 0.125 (≈ 0.0537 µM) | 0.125 (≈ 0.0537 µM)
CC(=O)N[C@H](C(=O)N[C@H]1CSSC[C@@H](C(=O)N[C@@H](CO)C(N)=O)NC(=O)[C@H](C(C)C)NC(=O)[C@@H]2CSSC[C@H](NC(=O)[C@H](Cc3ccc(O)cc3)NC1=O)C(=O)N[C@@H](CCC(=O)N[C@@H](CCN)C(=O)N[C@H](C(=O)N[C@@H](CCN)C(=O)N[C@H]1CCNC(=O)[C@H]([C@@H](C)O)NC(=O)[C@H](CCN)NC(=O)[C@H](CCN)NC(=O)[C@H](CC(C)C)NC(=O)[C@@H](CC(C)C)NC(=O)[C@H](CCN)NC1=O)[C@@H](C)O)C(=O)N[C@H](CCN)C(=O)N[C@@H](CCO)C(=O)N[C@@H](Cc1c[nH]c3ccccc13)C(=O)N2)C(C)C [Ex. 175] (I: Ac-VCYCE[dDab][hSer]WCVCS-NH2 / II: [Dab]T[Dab][Dab][Dab][dL]L[Dab][Dab]T; disulfide I:2-I:11, I:4-I:9; amide I:5-II:N; lactam II:4-II:C) | 1 | 0.0625 (≈ 0.0256 µM) | 0.125 (≈ 0.0511 µM) | 0.25 (≈ 0.102 µM) | 0.125 (≈ 0.0511 µM) | 0.25 (≈ 0.102 µM) | 0.5 (≈ 0.205 µM) | 0.125 (≈ 0.0511 µM) | 0.0625 (≈ 0.0256 µM)
